One assay relates to BxPC-3 tumor cells. The assay can be described thus: FACS selective binding assay, tumor cells. The assay is classed as cell-based. To be noted: BxPC-3, 30 min at 4° C. The method, then:
(§1) Briefly, freshly prepared red blood cells (from healthy donors) and BxPC-3 tumor cells (Procell, Wuhan, China) were used as target cells. […] The cells were washed at least twice with PBS and analyzed with flow cytometry after incubation.

Assay [1] has as its system red blood cells (from healthy donors). The assay can be described thus: FACS selective binding assay, red blood cells. The class given is cell-based. Conditions: 30 min at 4° C. The method, then:
as §1

In the case of “Hu5F9-G4: anti-CD47 antibody, expressed and prepared in house [reference compound]”, the “binding to target cells” value with BxPC-3 tumor cells is “specifically bind”; in assay [1], “binds with high affinity”.

The record behind these values is patent US20250295804A1, “PEG BASED ANTI-CD47/ANIT-PD-L1 BISPECIFIC ANTIBODY-DRUG CONJUGATE” (Shenzhen Enduring Biotech, Ltd., priority 2022, published 2025).
